Measurements published in BindingDB's records for doi:10.1021/jm950717a (Bristol-Myers Squibb, 1996).

Biological target: T1, Dimer of Gag-Pol polyprotein [489-587] (Human immunodeficiency virus 1, UniProt P12497)
T1 construct: 489-587
Assay: Protease Inhibition Assay
Details: pH 5.5; 37 °C
Description: IC50 values are determined by inhibition of the cleavage of the peptidic substrate [V-S-Q-N-(beta-naphthylalanine)-P-I-V]. The IC50 value represents the concentration of inhibitor required to inhibit cleavage of substrate by 50%. The assay is performed by addition of purified enzyme to a mixture of inhibitor and the above substrate at pH 5.5. The reaction medium is incubated for 30 min at 37 °C followed by quenching with H3-PO4 and then analyzed by reverse phase HPLC UV (220 nm) detection.

Compound | IC50
CC(C)(C)OC(=O)N[C@@H](Cc1ccccc1)[C@H](O)CNC[C@@H](O)[C@H](Cc1ccc(OCC(O)c2cccnc2)cc1)NC(=O)OC(C)(C)C (stereo partly drawn) [[1S-[1R*,2S*(2S*,3R*)]]-[3-[[3-[[(1,1-Dimethylethoxy)-carbonyl]amino]-2-hydroxy-4-[4-[2-hydroxy-2-(3-pyridinyl)ethoxy]phenyl]butyl]amino]-2-hydroxy-1-] | 110 nM
CC(C)(C)OC(=O)N[C@@H](Cc1ccccc1)[C@H](O)CNC[C@@H](O)[C@H](Cc1ccc(OCCN2CCOCC2)cc1)NC(=O)OC(C)(C)C [tert-butyl N-[(2S,3R)-4-{[(2R,3S)-3-{[(tert-butoxy)carbonyl]amino}-2-hydroxy-4-{4-[2-(morpholin-4-yl)ethoxy]phenyl}butyl]amino}-3-hydroxy-1-phenylbutan-2-yl]carbamate] | 100 nM
CC(C)(C)OC(=O)N[C@@H](Cc1ccccc1)[C@H](O)CNC[C@@H](O)[C@H](Cc1ccc(OCC(=O)N2CCOCC2)cc1)NC(=O)OC(C)(C)C [tert-butyl N-[(2S,3R)-4-{[(2R,3S)-3-{[(tert-butoxy)carbonyl]amino}-2-hydroxy-4-{4-[2-(morpholin-4-yl)-2-oxoethoxy]phenyl}butyl]amino}-3-hydroxy-1-phenylbutan-2-yl]carbamate] | 100 nM
